Assay results taken from patent publication US8951566B2, “Process for preparing products comprising stabilised actives and compositions comprising same” (priority 2011, dated 2015).

Assay: Blood glucose of a diabetic patient switched from Metformin to sublingual Exenatide tablet
Type: in vivo, human
Conditions: one diabetic patient; Exenatide 20 μg sublingual tablet once a day; FIGS. 1 and 2
Description: A diabetic patient who was undergoing treatment with Metformin switched to once a day treatment with a slow release 20 μg Exenatide sublingual tablet prepared in accordance with Example 2. The fasting glucose and plasma glucose levels were measured and are depicted in FIGS. 1 and 2.

Compound: CN(C)C(=N)N=C(N)N [Metformin]
- blood glucose level / profile (fasting and 2 hours after a meal): erratic and difficult to control
